The numbers were not newly measured in PMC8000448, “Inhibitory Effects of Schisandra Lignans on Cytochrome P450s and Uridine 5′-Diphospho-Glucuronosyl Transferases in Human Liver Microsomes” (Pharmaceutics, 2021), which cites them from elsewhere.

pIC50, pKi: −log10 of the molar value. Like-named read-outs stand apart in the source and are kept apart here. Some results are limits rather than exact numbers.

In one data set the test system is recombinant CYP2C19. Also on record: method as in PMID 24855828. To be noted: read-out: IC50, CYP2C19-catalyzed omeprazole hydroxylation; cited from earlier work.
For data set [1], the system named is CYP3A. The following applies: rats; cited from earlier work.
The test system of data set [2] is recombinant CYP3A4. The following applies: recombinant CYP3A4 isoform; read-out: IC50, CYP3A-mediated midazolam 1′-hydroxylation; cited from earlier work.
The subject of data set [3] is recombinant CYP3A4. To be noted: rCYP3A4, fluorescent substrate; cited from earlier work.
For data set [4], the target named is CYP3A. To be noted: read-out: Ki, CYP3A-mediated testosterone hydroxylation; cited from earlier work.
Another data set relates to CYP1A2. Also on record: method as in PMID 15342469. The following applies: cited from earlier work.
The test system of a further data set is CYP2C9. More on the design: method as in PMID 15342469. The following applies: cited from earlier work.
The next data set relates to CYP2C19. Also on record: method as in PMID 15342469. The following applies: cited from earlier work.
In the next data set the test system is CYP2D6. Also on record: method as in PMID 15342469. The following applies: cited from earlier work.
For data set [5], the system named is CYP3A. More on the design: method as in PMID 15342469. To be noted: read-out: IC50, CYP3A-mediated testosterone hydroxylase activity; cited from earlier work.

For `COc1cc2c(c(OC)c1OC)-c1c(cc(OC)c(OC)c1OC)C[C@H](C)[C@H](C)C2` [schisandrin A, reference compound], the pIC50 – broadly, the negative decadic logarithm of the IC50, by convention in mol/L – with recombinant CYP2C19 is 4.06. The “Plasma concentrations of midazolam” value in the data set with CYP3A [1] is recorded as “markedly increases”.

As to gomisin A, the pIC50 in the data set with recombinant CYP3A4 [2] is 5.73; in the data set on recombinant CYP3A4 [3] it was 5.86; with CYP1A2, under 5.00; in the data set on CYP2C9, under 5.00; in the data set on CYP2C19, under 5.00; in the data set on CYP2D6, under 5.00. Also, at CYP3A [4], the pKi (commonly the negative decadic logarithm of the Ki, by convention in mol/L) is 6.00.

`COc1cc2c(c(OC)c1OC)-c1c(cc3c(c1OC)OCO3)[C@H](OC(=O)c1ccccc1)[C@@](C)(O)[C@@H](C)C2` [gomisin G, reference compound]: the pIC50 in the data set on recombinant CYP3A4 [2] is 6.72.

Take gomisin B: the pIC50 in the data set with CYP3A [5] was 6.21 to 6.59; in the data set on CYP1A2, under 5.00; with CYP2C9 it was under 5.00; with CYP2C19, under 5.00; in the data set on CYP2D6 it was under 5.00.
